Literature values, collected in patent publication US20150010509A1 (priority 2012, published 2015).
“Also recorded” adds a separate entry of the source. Like-named read-outs stand apart in the source and are kept apart here.

Legend:
[1] = test system: MDA-MB-231 human breast cancer cells; conditions: cited from earlier work
[2] = test system: human peripheral blood mononuclear cells (PBMC); conditions: cited from earlier work
[3] = test system: MDA-MB-231 human breast cancer cells; conditions: SCID mice, cited from earlier work
[4] = test system: mammary gland adenocarcinomas; conditions: CaPterin suspension 7 mg/kg/day, oral gavage, seven days; C3H/HeN-MTV+ female mice; cited from earlier work
[5] = test system: plasma cytokines, kynurenine, tryptophan; conditions: cited from earlier work
[6] = test system: EMT6 mouse mammary tumor cells; conditions: CaPterin suspension 7 mg/kg/day oral, Balb/c mice, cited from earlier work
[7] = molecular target: T1, IDO (indoleamine 2,3-dioxygenase) (Homo sapiens, UniProt P14902); conditions: cited from earlier work
T1 construct: freshly isolated human peripheral blood mononuclear cells (PBMC); endogenous in cells; host or cells: freshly isolated human PBMC stimulated with PHA or Con A
T1 sequence (P14902 whole entry): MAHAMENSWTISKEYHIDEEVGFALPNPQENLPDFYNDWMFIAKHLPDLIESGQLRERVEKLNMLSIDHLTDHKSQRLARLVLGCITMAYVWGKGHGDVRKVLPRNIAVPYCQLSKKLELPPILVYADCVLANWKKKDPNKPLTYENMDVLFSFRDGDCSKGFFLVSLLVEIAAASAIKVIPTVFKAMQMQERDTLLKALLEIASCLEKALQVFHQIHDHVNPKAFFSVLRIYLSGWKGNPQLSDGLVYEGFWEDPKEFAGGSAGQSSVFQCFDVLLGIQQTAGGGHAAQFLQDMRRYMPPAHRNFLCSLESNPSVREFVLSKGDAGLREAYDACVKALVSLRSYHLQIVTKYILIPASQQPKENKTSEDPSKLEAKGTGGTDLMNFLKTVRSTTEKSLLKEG

[8] = test system: human peripheral blood mononuclear cells (PBMC); conditions: at the concentrations tested; cited from earlier work
[9] = cited from earlier work
hepatitis B virus (HBV) = conditions: cited from earlier work
[10] = test system: MIP-1β, inducible nitric oxide synthase 2, IDO gene expression; conditions: infected human monocytes; cited from earlier work
M. bovis BCG = conditions: cited from earlier work
[11] = test system: serum kyn/trp, MCP-1, GM-CSF; conditions: DCP per os 14 days; regression p=0.001; cited from earlier work
[12] = Unstimulated PBMC + 200 μg/ml CaPterin
[13] = stepwise regression on CaPterin dose, p=0.047

## Nc1nc2c3c(ncc[n+]3[Ca][O]2)n1
[1]; CaPterin 21 mg/(kg day), after 60 days of treatment, 5×10^6 cells, nude mice
  T/C: 37%
[1]; CaPterin suspension 7 mg/kg/day, oral gavage once daily 14 days, 5×10^6 cells, nude mice
  T/C after 14 days: 41%
[1]; CaPterin suspension 7 mg/kg/day, oral gavage, 14 days, nude mice
  treatment toxicity assessed by reductions in body weight: No treatment toxicity
[1]; mega-dosed by oral gavage 100 mg/(kg day) for up to 31 days
  toxicity (appreciable weight loss ≧10%): no observed toxicity
[2]; PBMC
  neopterin excretion: suppressed
[2]; [12]
  Neopterin: did not influence this level
[3]; 13, 20 and 26 mg/kg CaPterin, oral gavage Monday through Friday for 75 days
  antitumor efficacy: no antitumor efficacy
[3]; CaPterin suspension over 75 days
  toxicity: no measurable toxicity
[4]
  ratio of Test tumor volumes to Control tumor volumes (T/C) at Day 7: 10%
[5]; [13]
  plasma IFN-γ: decreases
  plasma IL-6: decreases
  plasma IL-10: increases
[5]; stepwise regression on CaPterin dose, p=0.047, confounded by tumor shrinkage
  plasma kynurenine: increases
[6]; 15 days
  animal toxicity determined by decreased body weight: no measurable animal toxicity
[6]; once daily 15 days
  effect on tumor growth: no significant effect on tumor growth
[7]; PBMC + Con A + CaPterin
  Kynurenine decrease: ≦100-fold
  Tryptophan: 17.7 µM
[7]; PBMC + PHA + CaPterin
  Kynurenine decrease: ≦100-fold
  Tryptophan: 17.7 µM
[7]; [12]
  Kynurenine: did not significantly affect
  Kynurenine/Tryptophan: lower
  Tryptophan: did not significantly affect
[7]; mitogen-stimulated PBMC
  IDO activity / stimulation-induced tryptophan degradation: suppressed stimulation-induced tryptophan degradation in a dose-dependent manner
[8]
  toxicity by exclusion method: no toxicity

## Nc1nc2nccnc2c(=O)[nH]1.[Ca] [(1:2 mol/mol) calcium pterin, calcium pterin]
[1]; (1:2 mol/mol) calcium pterin 25 mg/(kg day), 10×10^6 cells, 70-98 days of treatment
  T/C: 25%

## O.O.[Ca+2].[Cl-].[Cl-] [Calcium chloride dihydrate, calcium chloride dihydrate]
[1]; calcium chloride dihydrate 4.2 mg/(kg day), 10×10^6 cells, 70-98 days of treatment
  T/C: 25%

## Nc1nc([O-])c2nccnc2n1.Nc1nc([O-])c2nccnc2n1.[Ca+2] [DCP, dipterinyl calcium pentahydrate]
[1]; DCP 23 mg/(kg d), 10×10^6 cells, 70-98 days of treatment
  T/C: 25%
[1]; DCP 69 mg/(kg d), 10×10^6 cells, 70-98 days of treatment
  T/C: 50%
[9]; 7 mg/(kg d) DCP orally in 0.4% carboxymethylcellulose, 21 days, female DIO C57BL/6J mice, p<0.05
  reduction of OGTT/AUC (area under OGTT curve): 50%
[9]; optimum dose 7 mg/(kg d) DCP, female DIO mice
  OGTT diabetic state: significantly improved
Hepatitis B virus (HBV); DCP 23 mg/(kg d) per os, 14 days
  inhibition of liver HBV DNA: 83%
Hepatitis B virus (HBV); DCP per os once daily 14 days, 2.3 to 23 mg/(kg d), female HBV mice
  liver HBV DNA measured by PCR: significant dose-response reduction; also recorded: decreased
[5]; DCP treated mice, regression p=0.003
  tumor growth relation to plasma cytokines (DCP/APCP regression): decreases with IL-12 and IL-4, and increases with IL-6
[10]
  C-C chemokine MIP-1β: induction
  IDO gene expression: suppressed
  inducible nitric oxide synthase 2: induction
M. bovis BCG; DCP treatment of infected human monocytes
  viability of intracellular M. bovis BCG: significant reduction
M. bovis BCG; DCP treatment
  viability of extracellular M. bovis BCG: not extracellular
[11]
  IDO activity, serum kyn/trp: decreased
  chemokine MCP-1: reduced
  serum GM-CSF: increased

## CC(=O)O.CNC(=N)NCCC[C@H](N)C(=O)O [L-NMMA monoacetate]
M. bovis BCG; added to DCP-treated infected human monocytes
  effect on DCP inhibition of intracellular mycobacterial growth: reversed the inhibitory effects of DCP on intracellular mycobacterial growth

## Nc1nc2nccnc2c(=O)[nH]1 [Pterin, pterin]
[1]; pterin 21 mg/(kg day), nude mice
  antitumor activity: no antitumor activity

## CC(C)(C)C(=O)OCOP(=O)(COCCn1cnc2c(N)ncnc21)OCOC(=O)C(C)(C)C [adefovir dipivoxil]
Hepatitis B virus (HBV); ADV 10 mg/(kg day)
  inhibition of liver HBV DNA: ~83%
